PMC11509018, “Evaluation of the Role of Tanshinone I in an In Vitro System of Charcot-Marie-Tooth Disease Type 2N” (International Journal of Molecular Sciences, 2024)

Molecular target: T1, AlaRS R326W binding to GST-Nrp1 b1 (Homo sapiens, UniProt P49588, R326W)
T1 construct: made in house; host or cells: E. coli BL21 (DE3), pET-21a for AlaRS
T1 sequence (P49588 1-968 R326W): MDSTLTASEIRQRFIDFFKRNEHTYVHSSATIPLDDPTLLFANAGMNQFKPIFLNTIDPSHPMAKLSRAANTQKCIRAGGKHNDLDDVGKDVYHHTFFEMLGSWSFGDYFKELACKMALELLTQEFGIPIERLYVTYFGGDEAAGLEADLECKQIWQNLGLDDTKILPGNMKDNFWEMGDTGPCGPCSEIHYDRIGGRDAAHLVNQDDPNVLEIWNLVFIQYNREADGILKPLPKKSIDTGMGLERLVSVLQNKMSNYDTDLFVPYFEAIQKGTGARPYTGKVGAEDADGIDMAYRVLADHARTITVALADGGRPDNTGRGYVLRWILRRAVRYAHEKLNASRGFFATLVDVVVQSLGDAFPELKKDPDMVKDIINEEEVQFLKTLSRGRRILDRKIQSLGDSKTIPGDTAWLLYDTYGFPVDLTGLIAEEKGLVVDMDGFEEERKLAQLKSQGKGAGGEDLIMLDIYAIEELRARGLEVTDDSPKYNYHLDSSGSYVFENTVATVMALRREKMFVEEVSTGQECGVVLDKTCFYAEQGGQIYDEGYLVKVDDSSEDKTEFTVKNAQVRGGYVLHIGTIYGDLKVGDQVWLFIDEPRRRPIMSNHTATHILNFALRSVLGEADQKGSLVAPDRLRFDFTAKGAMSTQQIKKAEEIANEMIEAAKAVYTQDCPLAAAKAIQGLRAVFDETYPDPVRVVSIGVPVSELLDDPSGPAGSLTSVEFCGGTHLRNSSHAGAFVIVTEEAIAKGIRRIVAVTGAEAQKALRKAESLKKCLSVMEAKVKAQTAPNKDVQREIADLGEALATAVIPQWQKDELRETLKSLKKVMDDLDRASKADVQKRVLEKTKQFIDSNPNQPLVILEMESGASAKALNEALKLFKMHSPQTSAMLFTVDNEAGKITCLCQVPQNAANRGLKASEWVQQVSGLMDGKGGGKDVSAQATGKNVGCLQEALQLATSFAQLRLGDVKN
Experiment: GST pull down assay
Details: 20 µM Tanshinone I, ImageJ, average of three repeats
Experimental: To further investigate whether Tanshinone I-induced conformational changes in AlaRS CMT mutants affect their interaction with Nrp1, Co-IP experiments were performed in cells treated with Tanshinone I. By comparing Co-IP results obtained before and after treatment, we assessed the influence of the drug on the binding strength and mode between the AlaRS CMT mutants and Nrp1. […] To confirm the direct effect of Tanshinone I on the interaction between AlaRS CMT mutants and Nrp1, pull-down experiments were performed. […] Given that the interaction between AlaRS mutants and Nrp1 is associated with disease progression in CMT, the ability of Tanshinone I to disrupt this binding highlights its potential to intervene in the pathogenic mechanisms of these diseases.
Figure 7 The impact of Tanshinone I on the interaction between AlaRS mutants and Nrp1. (A) Co-IP assays were conducted to assess the binding between HA-AlaRS mutants and Nrp1, both with and without treatment with 20 µM Tanshinone I for 24 h. […] (C) Pull down assay was performed to detect the binding between AlaRS mutants and GST-Nrp1 b1 with or without 20 µM Tanshinone I. (D) Relative quantification statistics of the AlaRS mutants pulled down from the GST pull down experiments after Tanshinone I treatment were performed using ImageJ. (E) The cell viability of 293T and NSC34 cells treated with different concentrations of Tanshinone I was assessed using the CCK-8 assay over a 24 h period. TEXT PRINTED IN THE PICTURE: (B) Tanshinone I: Mean density band (N71Y): 0.60; Mean density band (G102R): 0.53; Mean density band (R326W): 0.50; Mean density band (R329H): 0.50; Mean density band (E337K): 0.62 | (D) Tanshinone I: Mean density band (N71Y): 0.82; Mean density band (G102R): 0.76; Mean density band (R326W): 0.84; Mean density band (R329H): 0.84; Mean density band (E337K): 0.90
To detect the direct interactions between the mutant proteins and Nrp1 in vitro, we performed a Glutathione S-transferase (GST) pull-down assay. AlaRS mutants fused with 6 × His were purified with Ni-NTA beads, followed by chromatography on a HiTrap Q HP column. Nrp1 b1 fragments fused with GST were purified with Glutathione Beads (#SA008100, Smart-Lifesciences, Changzhou, China). For GST pull-down assays, 1000 μg of each GST-fused Nrp1 b1 fragment was mixed with 200 μg of 6 × His-tagged fusion protein in binding buffer (50 mM Tris-HCl pH 7.5, 20 mM NaCl, 5% glycerol, 5 mM DTT with 0.1% BSA) at 4 °C overnight. The mixture was next incubated with 30 μL glutathione beads at 4 °C with constant rotation for 2–4 h. Subsequently, the bead/protein complex was washed three times, and eluted with 30 μL 2 × SDS sample buffer. The samples were then subjected to SDS-PAGE analysis. The experiment was repeated three times.

Mean density band (R326W), relative quantification of AlaRS mutant pulled down: 0.84
Compound: Cc1coc2c1C(=O)C(=O)c1c-2ccc2c(C)cccc12 [Tanshinone I]
